Measurements from US20250049891A1, “NOVEL PEPTIDE DERIVATIVE DERIVED FROM ADIPONECTIN AND USE THEREOF” (SEOUL NATIONAL UNIVERSITY HOSPITAL, priority 2021, published 2025).
≈ marks a conversion by molar mass, not a printed value. Square brackets hold non-standard residues; d marks the D form. Peptide text beside a SMILES is read from it. Phe(4-Cl) = N[CH](Cc1ccc(Cl)cc1)C(=O)O; Phe(4-F) = N[CH](Cc1ccc(F)cc1)C(=O)O

Columns and labels:
[1] = Metabolic stability test, mouse liver microsomes; assay type: in vitro ADME; conditions: NADPH, 37° C.; for remaining at 0.5 h, 1 μM: pH 7.4, mouse liver microsomes 0.5 mg/ml, 30 m
[2] = Plasma stability test, rat plasma; conditions: for remaining at 0.5 h, 1 μM / remaining at 2 h, 1 μM: rat, plasma
in vitro [3] = conditions: human, plasma
CYP2C19 = CYP2C19 (Homo sapiens, UniProt P33261); conditions: microsomes, 10 µM
CYP2C19, sequence (P33261 whole entry): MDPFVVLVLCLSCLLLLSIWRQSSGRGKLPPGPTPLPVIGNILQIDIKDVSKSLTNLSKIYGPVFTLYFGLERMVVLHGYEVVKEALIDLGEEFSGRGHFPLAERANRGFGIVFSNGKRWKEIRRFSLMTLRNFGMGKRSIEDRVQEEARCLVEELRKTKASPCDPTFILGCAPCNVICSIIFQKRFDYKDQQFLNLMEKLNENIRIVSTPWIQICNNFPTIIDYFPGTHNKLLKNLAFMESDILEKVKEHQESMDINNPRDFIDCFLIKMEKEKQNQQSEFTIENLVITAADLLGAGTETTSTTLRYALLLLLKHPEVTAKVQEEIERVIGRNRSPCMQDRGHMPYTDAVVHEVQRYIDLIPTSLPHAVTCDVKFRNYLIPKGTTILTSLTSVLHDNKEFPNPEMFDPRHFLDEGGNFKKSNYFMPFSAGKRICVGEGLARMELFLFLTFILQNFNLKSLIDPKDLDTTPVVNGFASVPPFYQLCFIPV
Method: (§1) Metabolites of each CYP isoenzyme indicator drug produced through the reaction were analyzed by LC-MS/MS using the Shimadzu Nexera XR system and TSQ vantage (Thermo).

CYP3A4 = CYP3A4 (Homo sapiens, UniProt P08684); conditions: microsomes, 10 µM
CYP3A4, sequence (P08684 whole entry): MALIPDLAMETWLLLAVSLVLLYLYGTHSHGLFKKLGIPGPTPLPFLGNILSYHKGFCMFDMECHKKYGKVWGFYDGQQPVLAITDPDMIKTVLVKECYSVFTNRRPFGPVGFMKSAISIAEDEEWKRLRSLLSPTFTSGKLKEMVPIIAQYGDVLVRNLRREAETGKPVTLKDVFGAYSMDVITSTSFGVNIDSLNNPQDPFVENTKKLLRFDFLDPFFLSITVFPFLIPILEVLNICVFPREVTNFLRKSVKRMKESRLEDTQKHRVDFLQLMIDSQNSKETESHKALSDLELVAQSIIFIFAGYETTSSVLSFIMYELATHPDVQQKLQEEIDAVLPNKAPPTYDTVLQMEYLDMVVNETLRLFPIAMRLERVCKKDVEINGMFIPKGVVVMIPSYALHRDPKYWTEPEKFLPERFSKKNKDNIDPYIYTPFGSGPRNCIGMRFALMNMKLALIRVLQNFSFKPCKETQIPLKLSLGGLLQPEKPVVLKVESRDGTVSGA
Method: as §1

CYP2C9 = CYP2C9 (Homo sapiens, UniProt P11712); conditions: microsomes, 10 µM
CYP2C9, sequence (P11712 whole entry): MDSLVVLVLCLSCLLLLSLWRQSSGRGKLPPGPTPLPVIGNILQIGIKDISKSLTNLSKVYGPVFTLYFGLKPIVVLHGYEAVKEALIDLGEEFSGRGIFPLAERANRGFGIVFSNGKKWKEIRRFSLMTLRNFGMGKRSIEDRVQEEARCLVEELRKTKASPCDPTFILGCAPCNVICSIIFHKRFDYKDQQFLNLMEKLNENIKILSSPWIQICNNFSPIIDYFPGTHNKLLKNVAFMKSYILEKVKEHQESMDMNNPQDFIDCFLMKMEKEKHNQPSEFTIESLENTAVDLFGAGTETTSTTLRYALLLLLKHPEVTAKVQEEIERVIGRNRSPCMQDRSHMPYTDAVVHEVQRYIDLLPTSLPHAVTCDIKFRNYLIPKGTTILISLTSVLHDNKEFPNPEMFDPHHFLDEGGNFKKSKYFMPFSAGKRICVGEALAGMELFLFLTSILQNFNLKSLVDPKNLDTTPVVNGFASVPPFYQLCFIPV
Method: as §1

CYP2D6 = CYP2D6 (Homo sapiens, UniProt P10635); conditions: microsomes, 10 µM
CYP2D6, sequence (P10635 whole entry): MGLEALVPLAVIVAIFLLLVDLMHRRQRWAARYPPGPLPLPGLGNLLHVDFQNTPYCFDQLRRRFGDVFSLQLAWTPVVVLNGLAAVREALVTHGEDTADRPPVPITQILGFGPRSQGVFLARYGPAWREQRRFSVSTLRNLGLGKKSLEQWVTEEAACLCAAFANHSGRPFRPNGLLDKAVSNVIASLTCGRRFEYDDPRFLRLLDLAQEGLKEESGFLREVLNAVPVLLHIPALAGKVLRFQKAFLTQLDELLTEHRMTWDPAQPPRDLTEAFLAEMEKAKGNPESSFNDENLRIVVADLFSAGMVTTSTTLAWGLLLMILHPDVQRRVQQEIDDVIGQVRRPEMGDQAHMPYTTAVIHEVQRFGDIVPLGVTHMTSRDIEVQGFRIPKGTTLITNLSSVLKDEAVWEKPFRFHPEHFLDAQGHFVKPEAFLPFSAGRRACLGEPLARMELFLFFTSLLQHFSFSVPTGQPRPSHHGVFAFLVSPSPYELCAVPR
Method: as §1

CYP1A2 = biological target: T1, CYP1A2 (Homo sapiens, UniProt P05177); conditions: microsomes, 10 µM
T1 sequence (P05177 1-516): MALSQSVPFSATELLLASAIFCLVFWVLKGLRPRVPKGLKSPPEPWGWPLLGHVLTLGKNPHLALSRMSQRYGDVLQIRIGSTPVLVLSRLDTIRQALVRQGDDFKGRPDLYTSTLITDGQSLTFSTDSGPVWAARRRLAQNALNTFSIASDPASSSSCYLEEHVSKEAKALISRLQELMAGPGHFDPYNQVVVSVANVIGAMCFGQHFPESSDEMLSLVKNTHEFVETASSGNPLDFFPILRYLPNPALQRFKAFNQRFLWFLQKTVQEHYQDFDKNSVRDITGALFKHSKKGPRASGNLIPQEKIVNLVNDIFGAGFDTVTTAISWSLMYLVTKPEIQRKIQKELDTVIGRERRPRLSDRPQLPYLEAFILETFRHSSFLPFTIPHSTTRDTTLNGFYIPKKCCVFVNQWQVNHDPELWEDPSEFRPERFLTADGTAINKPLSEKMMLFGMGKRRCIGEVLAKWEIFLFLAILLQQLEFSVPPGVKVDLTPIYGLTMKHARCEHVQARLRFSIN
Method: as §1

[4] = Metabolic stability test, rat liver microsomes; assay type: in vitro ADME; conditions: NADPH, 37° C.; for remaining at 0.5 h, 1 μM: pH 7.4, rat liver microsomes 0.5 mg/ml, 30 m
Solubility test = conditions: kinetic from dmso stock
in vitro [5] = conditions: human, microsomes, pH 7.4
AMPK phosphorylation [6] = assay: AMPK phosphorylation activity in mouse adipocytes (Western blot); assay type: cell-based; conditions: 3T3-L1, 10 μM, 24 hours; for AMPK phosphorylation activity (fold change): APN5 = 1.0
Method: There were confirmed effects of the peptide derivatives of the present disclosure on the expression and receptor activity of adiponectin in mouse adipocytes as a main adiponectin production site. A mouse adipocyte cell line 3T3-L1 was treated with each of the peptide derivatives of the present disclosure at a concentration of 10 μM and cultured for 24 hours, and then cells were obtained. Thereafter, the proteins were extracted and the effect on AMPK phosphorylation, which was responsible for the main downstream signaling of adiponectin, was confirmed by Western blot.

AMPK phosphorylation [7] = assay: Concentration dependence of AMPK phosphorylation activity (Western blot); assay type: cell-based, mouse; conditions: 3T3-L1, 0, 0.01, 0.1, 1, 10, and 100 μM, 24 hours
Method: A mouse adipocyte cell line 3T3-L1 was treated with the peptide derivative of the present disclosure at a series of concentrations of 0, 0.01, 0.1, 1, 10, and 100 μM and cultured for 24 hours, and then cells were obtained. Thereafter, the protein was extracted and the effect of the peptide derivative on AMPK phosphorylation in a concentration-dependent manner was confirmed by Western blot.

physchem = conditions: pH 7.4, aqueous buffer, kinetic from dmso stock
in vitro [8] = conditions: rat, plasma
[9] = Plasma stability test, human plasma; conditions: for remaining at 0.5 h, 1 μM / remaining at 2 h, 1 μM: human, plasma
[10] = Metabolic stability test, human liver microsomes; conditions: for remaining at 0.5 h, 1 μM: human, microsomes, pH 7.4
[11] = system: 3T3-L1 adipocytes, RD muscle cells, keratinocytes, and fibroblasts; assay: Cytotoxicity in vitro (MTT); assay type: cell-based; conditions: 0, 0.1, 1, 10, 100, and 500 μM, 24 hours
adiponectin receptor 1 = biological target: T2, adiponectin receptor 1 (Mus musculus, UniProt Q91VH1); assay: AMPK phosphorylation activity after knockdown of adiponectin receptor 1 (siRNA, Western blot); assay type: cell-based; conditions: 3T3-L1, adiponectin receptor 1 siRNA, 10 μM, 24 hours
T2 construct: a mouse adipocyte cell line 3T3-L1 was treated with siRNA of an adiponectin receptor 1 to be knocked down; endogenous in cells; host or cells: 3T3-L1 mouse adipocyte cell line
T2 sequence (Q91VH1 1-375): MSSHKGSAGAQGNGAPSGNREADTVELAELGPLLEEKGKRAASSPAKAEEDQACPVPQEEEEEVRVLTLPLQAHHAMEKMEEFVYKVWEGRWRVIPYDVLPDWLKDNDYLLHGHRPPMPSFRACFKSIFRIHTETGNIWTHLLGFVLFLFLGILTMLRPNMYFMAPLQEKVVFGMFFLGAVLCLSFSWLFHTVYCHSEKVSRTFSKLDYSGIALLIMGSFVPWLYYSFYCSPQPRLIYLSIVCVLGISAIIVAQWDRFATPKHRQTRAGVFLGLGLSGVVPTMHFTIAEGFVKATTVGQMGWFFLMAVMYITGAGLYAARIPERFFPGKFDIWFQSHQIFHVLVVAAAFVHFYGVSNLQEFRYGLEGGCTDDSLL
Method: In order to verify whether the peptide derivative of the present disclosure bound to an adiponectin receptor 1, a mouse adipocyte cell line 3T3-L1 was treated with siRNA of an adiponectin receptor 1 to be knocked down, and each of the peptide derivatives of the present disclosure was treated at 10 μM and cultured for 24 hours, and then cells were obtained. Thereafter, the proteins were extracted and it was confirmed by Western blot whether AMPK phosphorylation activity, which had been increased by the peptide derivatives, was lost.

[12] = PRISMA HT buffer, pH 7.4, aqueous buffer

Row | SMILES | remaining at 0.5 h, 1 μM [1] | remaining at 0.5 h, 1 μM [2] | remaining at 2 h, 1 μM [2] | CYP inhibition (% of control activity) CYP2C19 (CYP2C19) | CYP inhibition (% of control activity) CYP3A4 (CYP3A4) | CYP inhibition (% of control activity) CYP2D6 (CYP2D6) | remaining at 0.5 h, 1 μM [4] | solubility kinetic at 24 h (Solubility test; [12]) | AMPK phosphorylation activity (fold change) (AMPK phosphorylation [6]) | AMPK phosphorylation activity after knockdown of the adiponectin receptor 1 (adiponectin receptor 1) | AMPK phosphorylation activity compared to APN5 (in words) (AMPK phosphorylation [6]) | further results
1 | CC(C)C[C@H](NC(=O)CN)C(=O)N[C@@H](Cc1ccc(O)cc1)C(=O)N[C@@H](Cc1ccc(O)cc1)C(=O)N[C@@H](Cc1ccccc1)C(=O)O [APN5, NH2-GLYYF-OH, reference compound] | 9.5% | 83.1% | 70.5% | 98.5 % of control activity | 82.9 % of control activity | 92.3 % of control activity | 1.3% | 8.2 µg/mL (≈ 12.4 µM) | 1.0 fold change |  |  | remaining at 0.5 h, 1 μM (in vitro [3]): < 1%; remaining at 2 h, 1 μM (in vitro [3]): < 1%; CYP inhibition (% of control activity) CYP2C9 (CYP2C9): >100 % of control activity; CYP inhibition (% of control activity) CYP1A2 (CYP1A2): 88.8 % of control activity; remaining at 0.5 h, 1 μM (in vitro [5]): 1.7%
2 | CC(=O)NC(CC(=O)O)C(=O)NC(Cc1ccc(O)cc1)C(=O)NC(Cc1ccc(O)cc1)C(=O)NC(Cc1ccccc1)C(=O)O (stereo not drawn) [DS-28, AcNH-DYYF-OH] (Ac-DYYF-OH; configuration not given here) | 96.6% |  |  | 87.2 % of control activity | 95.5 % of control activity | 86.1 % of control activity | 85.8% |  | 1.9 fold change |  |  | remaining at 0.5 h, 1 μM (in vitro [3]): 17.6%; remaining at 2 h, 1 μM (in vitro [3]): 3.1%; CYP inhibition (% of control activity) CYP2C9 (CYP2C9): 96.9 % of control activity; CYP inhibition (% of control activity) CYP1A2 (CYP1A2): 81.7 % of control activity; concentration dependence of AMPK phosphorylation activity (AMPK phosphorylation [7]): increased AMPK phosphorylation activity in a concentration-dependent manner; remaining at 0.5 h, 1 μM (in vitro [5]): 93.8%; solubility at 24 h (physchem): 321 µg/mL (≈ 495 µM); remaining at 0.5 h, 1 μM (in vitro [8]): > 100%; remaining at 2 h, 1 μM (in vitro [8]): > 100%
3 | Cc1cc(CC(NC(=O)C(CC(=O)O)NC(=O)CN)C(=O)NC(Cc2ccc(O)cc2)C(=O)NC(Cc2ccccc2)C(N)=O)cc(C)c1O (stereo not drawn) [DS-41, NH2-GDY(Dmt)YF-NH2] | 95.2% | > 100% | 99.6% |  |  |  | 75.1% |  |  |  |  | remaining at 0.5 h, 1 μM [9]: < 1%; remaining at 2 h, 1 μM [9]: < 1%; remaining at 0.5 h, 1 μM [10]: 95.8%
4 | O=C(COc1ccc(C(=O)c2ccccc2)cc1)NC1CCN(Cc2ccccc2)CC1 [DS-43, adiporon, reference compound] |  |  |  | 66.0 % of control activity | 90.3 % of control activity | 30.3 % of control activity |  |  |  |  |  | Metabolic stability (% remaining) Mouse, 30 m ([1]; mouse liver microsomes 0.5 mg/ml, 1 μM): 3.1 % remaining; Plasma stability (% remaining) Rat, 30 m ([2]; rat plasma, 1 μM, 37° C., 30 m): >100 % remaining; Plasma stability (% remaining) Rat, 120 m ([2]; rat plasma, 1 μM, 37° C., 120 m): >100 % remaining; Plasma stability (% remaining) Human, 30 m ([9]; human plasma, 1 μM, 37° C., 30 m): >100 % remaining; Plasma stability (% remaining) Human, 120 m ([9]; human plasma, 1 μM, 37° C., 120 m): >100 % remaining; Metabolic stability (% remaining) Human, 30 m ([10]; human liver microsomes 0.5 mg/ml, 1 μM, NADPH, 37° C., 30 m): 54.9 % remaining; Metabolic stability (% remaining) Rat, 30 m ([4]; rat liver microsomes 0.5 mg/ml, 1 μM): 2.3 % remaining; solubility kinetic at 24 h (Solubility test; PRISMA HT buffer (diluted 1:40 in distilled water), pH 7.4, pH 7.4, aqueous buffer): 43.7 µg/mL (≈ 102 µM)
5 | CC(C)CC(NC(=O)CN)C(=O)NC(Cc1ccc(O)cc1)C(=O)NC(Cc1ccc(O)cc1)C(=O)N(C)C(Cc1ccccc1)C(N)=O (stereo not drawn) [DS-48, NH2-GLYYF(N-Me)-NH2] | 20.6% | > 100% | 84.9% |  |  |  | 2.8% |  | 1.5 fold change | decreased the AMPK phosphorylation activity after knockdown of the adiponectin receptor 1 | significant effect of increasing AMPK phosphorylation activity | remaining at 0.5 h, 1 μM [9]: 1.1%; remaining at 2 h, 1 μM [9]: < 1%; cytotoxicity [11]: no toxicity; concentration dependence of AMPK phosphorylation activity (AMPK phosphorylation [7]): increased AMPK phosphorylation activity in a concentration-dependent manner; remaining at 0.5 h, 1 μM [10]: 21.6%; solubility at 24 h (Solubility test; PRISMA HT test buffer, pH 7.4, aqueous buffer): 334 µg/mL (≈ 495 µM)
6 | CC(C)CC(NC(=O)CN)C(=O)NC(Cc1ccc(F)cc1)C(=O)NC(Cc1ccc(O)cc1)C(=O)NC(Cc1ccccc1)C(N)=O (stereo not drawn) [DS-51, NH2-GLF(4-F)YF-NH2] (H-GL[Phe(4-F)]YF-NH2; configuration not given here) |  |  |  |  |  |  |  |  | 1.3 fold change | decreased the AMPK phosphorylation activity after knockdown of the adiponectin receptor 1 | significant effect of increasing AMPK phosphorylation activity | solubility at 24 h (physchem): 136 µg/mL (≈ 204 µM)
7 | CC(C)CC(NC(=O)CN)C(=O)NC(Cc1ccc(Cl)cc1)C(=O)NC(Cc1ccc(O)cc1)C(=O)NC(Cc1ccccc1)C(N)=O (stereo not drawn) [DS-52, NH2-GLF(4-C1)YF-NH2] (H-GL[Phe(4-Cl)]YF-NH2; configuration not given here) |  |  |  |  |  |  |  |  | 1.2 fold change | decreased the AMPK phosphorylation activity after knockdown of the adiponectin receptor 1 | significant effect of increasing AMPK phosphorylation activity | 
8 | O=C(O)Cc1ccccc1Nc1c(Cl)cccc1Cl [Diclofenac] |  |  |  |  |  |  |  | 157 µg/mL (≈ 530 µM) |  |  |  | 
9 | Nc1ccc(/N=N/c2ccccc2)c(N)n1 [Phenazopyridine] |  |  |  |  |  |  |  | 23.8 µg/mL (≈ 111 µM) |  |  |  | 
